Results: ChEMBL document CHEMBL3399966, “Isosteric replacements of the carboxylic acid of drug candidate VX-787: Effect of charge on antiviral potency and kinase activity of azaindole-based influenza PB2 inhibitors” (Bioorg Med Chem Lett, 2015)

Experiments:
[1] = molecular target: T1, Interleukin-1 receptor-associated kinase 4 (Homo sapiens, UniProt Q9NWZ3); test: Inhibition of IRAK4 (unknown origin)
T1 sequence (Q9NWZ3 whole entry): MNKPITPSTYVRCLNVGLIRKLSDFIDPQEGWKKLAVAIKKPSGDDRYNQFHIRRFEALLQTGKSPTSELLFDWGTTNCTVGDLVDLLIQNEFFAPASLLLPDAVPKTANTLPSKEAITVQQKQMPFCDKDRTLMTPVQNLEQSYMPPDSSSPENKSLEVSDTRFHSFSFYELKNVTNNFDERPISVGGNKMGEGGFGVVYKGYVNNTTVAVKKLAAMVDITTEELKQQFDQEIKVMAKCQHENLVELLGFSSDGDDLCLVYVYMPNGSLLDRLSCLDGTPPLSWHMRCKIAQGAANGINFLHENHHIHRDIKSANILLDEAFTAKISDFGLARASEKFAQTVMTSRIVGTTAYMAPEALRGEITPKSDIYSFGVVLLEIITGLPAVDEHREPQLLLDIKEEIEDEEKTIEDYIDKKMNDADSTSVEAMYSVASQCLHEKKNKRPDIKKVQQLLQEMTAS

[2] = molecular target: T2, Receptor-type tyrosine-protein kinase FLT3 (Homo sapiens, UniProt P36888); test: Inhibition of FLT3 (unknown origin)
T2 sequence (P36888 whole entry): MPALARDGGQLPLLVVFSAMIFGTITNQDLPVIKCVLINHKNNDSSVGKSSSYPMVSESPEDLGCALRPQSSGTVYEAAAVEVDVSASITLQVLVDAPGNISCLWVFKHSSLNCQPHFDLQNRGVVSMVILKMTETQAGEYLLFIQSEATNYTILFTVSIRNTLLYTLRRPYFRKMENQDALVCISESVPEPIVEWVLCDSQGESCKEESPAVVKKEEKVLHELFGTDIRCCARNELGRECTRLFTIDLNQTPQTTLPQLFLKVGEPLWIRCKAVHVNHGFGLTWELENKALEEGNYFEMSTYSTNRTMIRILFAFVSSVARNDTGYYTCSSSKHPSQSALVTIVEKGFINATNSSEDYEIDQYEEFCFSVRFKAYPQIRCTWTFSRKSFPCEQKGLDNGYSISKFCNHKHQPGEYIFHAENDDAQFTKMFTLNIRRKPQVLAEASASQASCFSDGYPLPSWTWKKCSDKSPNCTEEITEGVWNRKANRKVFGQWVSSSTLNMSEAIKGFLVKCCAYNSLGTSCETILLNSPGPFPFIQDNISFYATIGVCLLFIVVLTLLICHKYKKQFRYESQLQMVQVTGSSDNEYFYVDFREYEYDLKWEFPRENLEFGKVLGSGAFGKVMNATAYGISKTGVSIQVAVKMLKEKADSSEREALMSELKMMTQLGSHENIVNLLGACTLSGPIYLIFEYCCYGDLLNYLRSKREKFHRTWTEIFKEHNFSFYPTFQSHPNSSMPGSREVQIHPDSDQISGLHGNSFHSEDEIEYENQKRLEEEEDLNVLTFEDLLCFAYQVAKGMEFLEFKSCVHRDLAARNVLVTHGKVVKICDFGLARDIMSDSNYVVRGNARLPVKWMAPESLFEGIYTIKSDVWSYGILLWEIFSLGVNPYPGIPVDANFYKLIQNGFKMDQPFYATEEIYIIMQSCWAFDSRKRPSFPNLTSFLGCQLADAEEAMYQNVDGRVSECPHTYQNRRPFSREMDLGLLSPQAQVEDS

[3] = molecular target: Phosphatidylinositol 4,5-bisphosphate 3-kinase catalytic subunit beta isoform (Homo sapiens, UniProt P42338); test: Inhibition of PI3Kbeta (unknown origin)
[4] = molecular target: Cyclin-dependent kinase 2 (Homo sapiens, UniProt P24941); test: Inhibition of CDK2 (unknown origin)
[5] = molecular target: T3, Phosphatidylinositol 4,5-bisphosphate 3-kinase catalytic subunit delta isoform (Homo sapiens, UniProt O00329); test: Inhibition of PI3Kdelta (unknown origin)
T3 sequence (O00329 whole entry): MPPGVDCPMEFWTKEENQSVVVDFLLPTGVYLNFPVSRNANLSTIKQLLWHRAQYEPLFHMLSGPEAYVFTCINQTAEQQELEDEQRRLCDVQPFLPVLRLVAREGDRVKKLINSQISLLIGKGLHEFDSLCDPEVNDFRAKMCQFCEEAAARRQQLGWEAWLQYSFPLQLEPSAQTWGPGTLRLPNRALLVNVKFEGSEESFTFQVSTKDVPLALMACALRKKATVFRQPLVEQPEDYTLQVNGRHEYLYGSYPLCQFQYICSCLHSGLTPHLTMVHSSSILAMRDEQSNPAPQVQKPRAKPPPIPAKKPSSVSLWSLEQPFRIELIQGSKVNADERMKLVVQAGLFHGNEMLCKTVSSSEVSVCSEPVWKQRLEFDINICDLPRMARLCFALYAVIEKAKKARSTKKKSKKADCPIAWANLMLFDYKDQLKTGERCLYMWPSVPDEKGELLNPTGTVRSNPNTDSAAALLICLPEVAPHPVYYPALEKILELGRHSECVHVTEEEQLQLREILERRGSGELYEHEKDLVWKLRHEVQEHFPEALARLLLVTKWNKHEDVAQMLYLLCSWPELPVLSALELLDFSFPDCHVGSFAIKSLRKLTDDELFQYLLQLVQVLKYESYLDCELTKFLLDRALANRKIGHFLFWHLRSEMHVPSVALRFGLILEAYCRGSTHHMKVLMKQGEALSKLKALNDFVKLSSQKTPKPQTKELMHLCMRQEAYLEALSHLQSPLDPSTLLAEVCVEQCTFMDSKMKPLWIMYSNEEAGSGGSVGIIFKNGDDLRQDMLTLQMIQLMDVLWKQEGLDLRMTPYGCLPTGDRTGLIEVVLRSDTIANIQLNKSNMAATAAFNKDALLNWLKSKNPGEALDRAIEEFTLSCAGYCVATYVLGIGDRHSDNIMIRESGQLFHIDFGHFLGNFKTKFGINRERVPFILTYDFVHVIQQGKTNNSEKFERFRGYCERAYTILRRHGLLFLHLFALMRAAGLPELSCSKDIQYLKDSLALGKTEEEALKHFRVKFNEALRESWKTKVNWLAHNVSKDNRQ

[6] = molecular target: Phosphatidylinositol 4,5-bisphosphate 3-kinase catalytic subunit gamma isoform (Homo sapiens, UniProt P48736); test: Inhibition of PI3Kgamma (unknown origin)
[7] = molecular target: Phosphatidylinositol 4,5-bisphosphate 3-kinase catalytic subunit alpha isoform (Homo sapiens, UniProt P42336); test: Inhibition of PI3Kalpha (unknown origin)
[8] = molecular target: Mitogen-activated protein kinase 10 (Homo sapiens, UniProt P53779); test: Inhibition of JNK3 (unknown origin)
Influenza A virus [9] = test: Antiviral activity against influenza A virus A/PR/8/34 strain incubated with MDCK cells assessed as reduction of viral RNA level equal to 1% of control level after 72 hrs by branched DNA assay; assay type: functional, organism-based; settings: A/Puerto Rico/8/1934(H1N1)
[10] = molecular target: Rho-associated protein kinase (Homo sapiens, UniProt O75116+Q13464); test: Inhibition of ROCK (unknown origin); assay type: protein-complex assay
[11] = molecular target: Serine/threonine-protein kinase PLK1 (Homo sapiens, UniProt P53350); test: Inhibition of PLK (unknown origin)
Influenza A virus [12] = test: Antiviral activity against Influenza A virus A/PR/8/34 strain incubated with MDCK cells assessed as cell protection after 72 hrs by phenotypic cell protection assay; assay type: functional, organism-based; settings: A/Puerto Rico/8/1934(H1N1)
[13] = molecular target: Proto-oncogene tyrosine-protein kinase Src (Homo sapiens, UniProt P12931); test: Inhibition of SRC (unknown origin)
[14] = molecular target: Vascular endothelial growth factor receptor 2 (Homo sapiens, UniProt P35968); test: Inhibition of KDR (unknown origin)
[15] = molecular target: Tyrosine-protein kinase JAK2 (Homo sapiens, UniProt O60674); test: Inhibition of JAK2 (unknown origin)
[16] = molecular target: cAMP-dependent protein kinase catalytic subunit alpha (Homo sapiens, UniProt P17612); test: Inhibition of PKAa (unknown origin)
[17] = molecular target: Hepatocyte growth factor receptor (Homo sapiens, UniProt P08581); test: Inhibition of MET (unknown origin)
[18] = molecular target: Tyrosine-protein kinase SYK (Homo sapiens, UniProt P43405); test: Inhibition of SYK (unknown origin)
[19] = molecular target: Glycogen synthase kinase-3 (Homo sapiens, UniProt P49840+P49841); test: Inhibition of GSK3 (unknown origin); assay type: protein assay

Serine/threonine-protein kinase PLK1, sequence (P53350 whole entry): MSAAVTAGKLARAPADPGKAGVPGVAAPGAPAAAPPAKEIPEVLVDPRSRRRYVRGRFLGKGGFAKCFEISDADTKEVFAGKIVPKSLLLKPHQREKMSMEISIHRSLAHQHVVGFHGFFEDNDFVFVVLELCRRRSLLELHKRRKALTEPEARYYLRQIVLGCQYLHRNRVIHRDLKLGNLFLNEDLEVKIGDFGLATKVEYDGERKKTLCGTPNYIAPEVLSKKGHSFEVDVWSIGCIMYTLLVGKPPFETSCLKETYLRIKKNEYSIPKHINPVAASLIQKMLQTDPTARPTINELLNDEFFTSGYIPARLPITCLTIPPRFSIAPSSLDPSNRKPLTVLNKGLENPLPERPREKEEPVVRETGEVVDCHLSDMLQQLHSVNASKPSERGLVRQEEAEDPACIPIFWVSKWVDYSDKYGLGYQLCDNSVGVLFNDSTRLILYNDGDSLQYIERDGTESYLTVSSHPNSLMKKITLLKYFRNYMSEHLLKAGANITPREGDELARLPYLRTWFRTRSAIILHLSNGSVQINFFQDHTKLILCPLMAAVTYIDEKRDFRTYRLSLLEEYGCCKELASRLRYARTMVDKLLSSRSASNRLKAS
Vascular endothelial growth factor receptor 2, sequence (P35968 whole entry): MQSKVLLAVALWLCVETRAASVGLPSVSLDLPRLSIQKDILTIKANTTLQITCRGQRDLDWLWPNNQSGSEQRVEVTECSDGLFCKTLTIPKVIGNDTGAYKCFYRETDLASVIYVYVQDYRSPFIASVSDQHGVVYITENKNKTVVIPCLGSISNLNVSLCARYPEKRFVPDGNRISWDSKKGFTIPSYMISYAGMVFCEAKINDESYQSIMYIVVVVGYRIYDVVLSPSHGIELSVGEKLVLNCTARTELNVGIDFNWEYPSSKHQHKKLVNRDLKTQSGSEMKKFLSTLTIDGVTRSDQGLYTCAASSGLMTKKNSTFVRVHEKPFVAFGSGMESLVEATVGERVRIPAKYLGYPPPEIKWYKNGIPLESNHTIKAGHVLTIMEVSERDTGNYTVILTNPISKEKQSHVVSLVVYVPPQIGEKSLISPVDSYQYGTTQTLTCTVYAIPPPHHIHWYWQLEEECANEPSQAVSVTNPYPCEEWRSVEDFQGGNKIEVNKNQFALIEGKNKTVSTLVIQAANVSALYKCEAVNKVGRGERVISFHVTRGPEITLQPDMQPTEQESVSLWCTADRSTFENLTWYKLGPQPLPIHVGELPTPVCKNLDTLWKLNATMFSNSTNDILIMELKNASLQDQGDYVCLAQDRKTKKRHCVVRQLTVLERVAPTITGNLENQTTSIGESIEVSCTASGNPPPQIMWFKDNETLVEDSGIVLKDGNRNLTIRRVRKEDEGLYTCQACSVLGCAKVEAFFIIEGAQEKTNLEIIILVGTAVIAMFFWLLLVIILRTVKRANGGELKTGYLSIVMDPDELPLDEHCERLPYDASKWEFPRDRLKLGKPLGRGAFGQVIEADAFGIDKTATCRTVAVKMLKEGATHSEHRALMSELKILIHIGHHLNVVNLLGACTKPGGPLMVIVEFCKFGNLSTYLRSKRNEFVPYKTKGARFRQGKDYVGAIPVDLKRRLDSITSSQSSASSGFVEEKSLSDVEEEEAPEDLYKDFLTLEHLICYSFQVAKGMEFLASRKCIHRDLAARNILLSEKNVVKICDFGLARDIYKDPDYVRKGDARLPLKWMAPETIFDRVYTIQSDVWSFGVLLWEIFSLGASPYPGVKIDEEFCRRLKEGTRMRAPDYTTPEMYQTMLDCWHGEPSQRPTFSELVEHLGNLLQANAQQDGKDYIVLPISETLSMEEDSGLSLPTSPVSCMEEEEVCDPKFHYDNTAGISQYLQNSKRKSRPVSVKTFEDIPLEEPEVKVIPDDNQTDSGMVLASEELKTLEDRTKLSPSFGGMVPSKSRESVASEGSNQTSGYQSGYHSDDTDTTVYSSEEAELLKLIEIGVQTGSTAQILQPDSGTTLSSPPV
Tyrosine-protein kinase JAK2, sequence (O60674 whole entry): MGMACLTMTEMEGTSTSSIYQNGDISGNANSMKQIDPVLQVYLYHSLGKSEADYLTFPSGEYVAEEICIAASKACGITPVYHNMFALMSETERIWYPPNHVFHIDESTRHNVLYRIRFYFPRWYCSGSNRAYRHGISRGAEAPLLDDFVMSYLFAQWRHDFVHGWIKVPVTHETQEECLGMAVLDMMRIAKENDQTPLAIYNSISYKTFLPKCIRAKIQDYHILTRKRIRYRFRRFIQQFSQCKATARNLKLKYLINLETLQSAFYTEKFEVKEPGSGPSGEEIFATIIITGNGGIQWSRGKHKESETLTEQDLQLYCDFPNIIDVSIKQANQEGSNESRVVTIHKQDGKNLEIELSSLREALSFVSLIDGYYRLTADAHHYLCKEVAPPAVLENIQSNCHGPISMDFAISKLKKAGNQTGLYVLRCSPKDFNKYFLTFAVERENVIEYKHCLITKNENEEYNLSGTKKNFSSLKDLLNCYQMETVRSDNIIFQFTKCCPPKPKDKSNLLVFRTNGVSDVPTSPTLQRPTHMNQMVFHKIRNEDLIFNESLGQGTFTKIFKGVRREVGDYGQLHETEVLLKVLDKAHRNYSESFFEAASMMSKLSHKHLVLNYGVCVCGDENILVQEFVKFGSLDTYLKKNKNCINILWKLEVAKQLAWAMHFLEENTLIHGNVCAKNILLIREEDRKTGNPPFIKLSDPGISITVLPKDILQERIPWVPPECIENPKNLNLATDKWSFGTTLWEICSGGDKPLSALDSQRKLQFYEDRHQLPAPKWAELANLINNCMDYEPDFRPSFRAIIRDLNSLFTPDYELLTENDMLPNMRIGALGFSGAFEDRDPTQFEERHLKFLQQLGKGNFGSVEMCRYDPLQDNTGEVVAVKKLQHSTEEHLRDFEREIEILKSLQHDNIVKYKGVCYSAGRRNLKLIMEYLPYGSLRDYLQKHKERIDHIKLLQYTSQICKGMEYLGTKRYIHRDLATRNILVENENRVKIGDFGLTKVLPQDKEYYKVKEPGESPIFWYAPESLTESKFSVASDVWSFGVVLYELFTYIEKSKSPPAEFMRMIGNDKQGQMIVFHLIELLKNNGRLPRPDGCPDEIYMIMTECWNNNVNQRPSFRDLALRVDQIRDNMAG
Mitogen-activated protein kinase 10, sequence (P53779 whole entry): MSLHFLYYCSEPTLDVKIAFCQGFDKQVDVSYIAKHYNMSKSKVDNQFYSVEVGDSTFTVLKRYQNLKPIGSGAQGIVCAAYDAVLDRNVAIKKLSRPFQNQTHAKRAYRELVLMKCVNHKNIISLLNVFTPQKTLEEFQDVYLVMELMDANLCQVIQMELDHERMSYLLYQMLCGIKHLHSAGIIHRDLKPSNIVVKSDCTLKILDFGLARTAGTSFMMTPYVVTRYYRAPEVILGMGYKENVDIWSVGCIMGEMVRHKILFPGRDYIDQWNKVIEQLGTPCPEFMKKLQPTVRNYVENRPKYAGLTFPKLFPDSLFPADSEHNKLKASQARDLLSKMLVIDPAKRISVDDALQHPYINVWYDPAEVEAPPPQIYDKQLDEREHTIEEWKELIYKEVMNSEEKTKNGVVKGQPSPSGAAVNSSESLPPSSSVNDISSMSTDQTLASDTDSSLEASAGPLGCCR
Phosphatidylinositol 4,5-bisphosphate 3-kinase catalytic subunit gamma isoform, sequence (P48736 whole entry, canonical isoform): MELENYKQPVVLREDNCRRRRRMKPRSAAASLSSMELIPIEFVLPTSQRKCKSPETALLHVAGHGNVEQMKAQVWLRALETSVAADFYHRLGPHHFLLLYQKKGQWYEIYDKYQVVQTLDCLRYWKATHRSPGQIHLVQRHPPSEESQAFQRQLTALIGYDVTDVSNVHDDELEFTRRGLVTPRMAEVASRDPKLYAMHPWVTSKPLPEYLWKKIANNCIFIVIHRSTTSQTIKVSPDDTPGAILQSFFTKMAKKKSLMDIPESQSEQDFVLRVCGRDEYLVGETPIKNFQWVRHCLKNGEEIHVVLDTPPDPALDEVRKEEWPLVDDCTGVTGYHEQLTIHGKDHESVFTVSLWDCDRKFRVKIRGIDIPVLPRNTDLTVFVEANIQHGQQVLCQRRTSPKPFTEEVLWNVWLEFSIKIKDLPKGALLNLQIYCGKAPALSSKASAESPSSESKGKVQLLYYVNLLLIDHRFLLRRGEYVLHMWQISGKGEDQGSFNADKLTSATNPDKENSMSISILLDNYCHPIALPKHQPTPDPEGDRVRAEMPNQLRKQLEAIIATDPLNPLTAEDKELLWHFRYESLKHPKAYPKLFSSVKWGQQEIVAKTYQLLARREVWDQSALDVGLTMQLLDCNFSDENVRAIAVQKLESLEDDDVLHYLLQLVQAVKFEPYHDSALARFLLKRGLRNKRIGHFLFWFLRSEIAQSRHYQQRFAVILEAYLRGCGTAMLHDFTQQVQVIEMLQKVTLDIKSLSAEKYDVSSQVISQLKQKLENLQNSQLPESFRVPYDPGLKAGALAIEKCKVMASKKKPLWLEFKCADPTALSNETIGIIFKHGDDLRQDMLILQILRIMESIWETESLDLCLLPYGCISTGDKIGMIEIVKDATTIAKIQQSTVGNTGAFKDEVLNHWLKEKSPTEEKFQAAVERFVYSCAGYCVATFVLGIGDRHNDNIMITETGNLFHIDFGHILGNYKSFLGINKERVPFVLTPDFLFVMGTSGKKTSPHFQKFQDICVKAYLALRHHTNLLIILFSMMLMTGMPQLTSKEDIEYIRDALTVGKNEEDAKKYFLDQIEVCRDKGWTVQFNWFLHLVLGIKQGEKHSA

| Structure (SMILES) | Ki [1] [nM] | Ki [2] [nM] | Ki [3] [nM] | Ki [4] [nM] | Ki [5] [nM] | Ki [6] [nM] | Ki [7] [nM] | Ki [8] [nM] | EC50 (Influenza A virus [9]) [nM] | EC99 (Influenza A virus [9]) [µM] | Ki [10] [nM] | Ki [11] [nM] | IC50 (Influenza A virus [12]) [nM] | Ki [13] [nM] | Ki [14] [nM] | Ki [15] [nM] | Ki [16] [nM] | Ki [17] [nM] | Ki [18] [nM] | Ki [19] [nM] |
| --- | --- | --- | --- | --- | --- | --- | --- | --- | --- | --- | --- | --- | --- | --- | --- | --- | --- | --- | --- | --- |
| NS(=O)(=O)[C@H]1C2CCC(CC2)[C@@H]1Nc1nc(-c2c[nH]c3ncc(F)cc23)ncc1F (mixture of isomers) | > 4000 | 1200 | > 4000 | > 4000 | 1900 | 1100 | > 4000 | > 4000 | 6 | 0.064 | 980 | 2100 | 6 | 3100 | 1900 | 840 | 490 | > 4000 | > 4000 | 85 |
| OCC(O)[C@H]1C2CCC(CC2)[C@@H]1Nc1nc(-c2c[nH]c3ncc(F)cc23)ncc1F (mixture of isomers) | 2700 | 160 | 2500 | > 4000 | 1600 | 710 | 2600 | > 4000 | 41 | 0.18 | 1500 | 510 | 68 | 3500 | 2400 | 390 | 230 | > 4000 | 3400 | 78 |
| Oc1cc([C@H]2C3CCC(CC3)[C@@H]2Nc2nc(-c3c[nH]c4ncc(F)cc34)ncc2F)[nH]n1 (mixture of isomers) | > 4000 | 4000 | > 4000 | > 4000 | > 4000 | > 4000 | > 4000 | > 4000 | 140 | 0.76 | > 4000 | 1700 | 160 | > 4000 | > 4000 | > 4000 | > 4000 | > 4000 | > 4000 | 1200 |
| CNC(=O)[C@H]1C2CCC(CC2)[C@@H]1Nc1nc(-c2c[nH]c3ncc(F)cc23)ncc1F (mixture of isomers) | > 4000 | 1400 | > 4000 | > 4000 | > 4000 | > 4000 | > 4000 | > 4000 | 35 | 0.31 | > 4000 | > 4000 | 14 | 2500 | > 4000 | 1100 | > 4000 | > 4000 | > 4000 | 230 |
| CC(O)[C@H]1C2CCC(CC2)[C@@H]1Nc1nc(-c2c[nH]c3ncc(F)cc23)ncc1F (mixture of isomers) | 3300 | 150 | > 4000 | 1200 | > 4000 | 780 | > 4000 | > 4000 | 490 | > 3.1 | 310 | 1000 | 310 | 970 | 2000 | 240 | > 4000 | > 4000 | > 4000 | 66 |
| Cc1noc([C@H]2C3CCC(CC3)[C@@H]2Nc2nc(-c3c[nH]c4ncc(F)cc34)ncc2F)n1 (mixture of isomers) | > 4000 | 970 | 2300 | > 4000 | 2500 | 1400 | > 4000 | > 4000 | 120 | 1.2 | > 4000 | > 4000 | 210 | 2400 | > 4000 | > 4000 | 1100 | > 4000 | > 4000 | 980 |
| Cc1nnc([C@H]2C3CCC(CC3)[C@@H]2Nc2nc(-c3c[nH]c4ncc(F)cc34)ncc2F)o1 (mixture of isomers) | > 4000 | 1800 | > 4000 | > 4000 | 1200 | 2800 | > 4000 | > 4000 | 170 | 1.9 | > 4000 | > 4000 | 130 | > 4000 | > 4000 | > 4000 | > 4000 | > 4000 | > 4000 | 1100 |
| CS(=O)(=O)[C@H]1C2CCC(CC2)[C@@H]1Nc1nc(-c2c[nH]c3ncc(F)cc23)ncc1F (mixture of isomers) | > 4000 | 840 | > 4000 | > 4000 | 3300 | 1200 | > 4000 | > 4000 | 2 | 2.2 | 2700 | > 4000 | 230 | 3100 | 1500 | 740 | 1500 | > 4000 | > 4000 | 77 |
